{"source": "patent US9133141B2", "about": "“Cysteine and cystine bioisosteres to treat schizophrenia and reduce drug cravings” (Marquette University, priority 2008, dated 2015)", "key": {"[1]": {"tested_on": "rats", "test": "Prepulse inhibition of acoustic startle, phencyclidine-induced sensorimotor gating deficit", "assay_type": "in vivo, rat", "details": "for inhibition of startle response when preceded by pre-pulse (sensorimotor gating): rats pretreated 60 min, PCP 1.25 mg/kg SC, FIG. 7", "description": "Sensorimotor gating, a process compromised in schizophrenic patients, is often measured using prepulse inhibition whereby a mild auditory stimulus (prepulse, 2-15 db above background) precedes (100 ms) a startle-eliciting auditory stimulus (50 dB above background). Intact sensorimotor gating will result in suppression of the startle reflex when preceded by the prepulse. Since improvement in prepulse inhibition tracks improvement in symptoms that are largely insensitive to current treatments, this paradigm has become one of the most commonly used screening paradigms. FIG. 5 illustrates the capacity of PCP to disrupt prepulse inhibition, rendering the prepulse ineffective in suppressing the startle reflex. PCP is commonly used to disrupt prepulse inhibition because this abnormality, in addition to negative and cognitive symptoms, are insensitive to 1st generation antipsychotics thereby providing predictive validity.\nFIG. 7 is a bar graph illustrating inhibition of a startle response in response to a load stimulus (pulse) when preceded by a pre-pulse stimulus (2-15 db above background). Prepulse inhibition is a commonly used paradigm to screen antipsychotic agents for use in treating schizophrenia. The pre-pulse stimulus presented at 15 dB above background reduced the startle response in saline controls (Sal; N=54) by >60% relative to the response elicited following exposure to the pulse only. […] This reflects sensorimotor gating deficits common to patients afflicted with schizophrenia.\nIn an exemplary experiment, rats are placed on a platform in a sound attenuating chamber (10.875″×14″×19.5″, Hamilton Kinder, CA) that rests on a motion sensing plate. During all sessions, background noise is held constant at 60 dB. A matching session is conducted to determine the magnitude of the average startle response for each rat. This session consists of a five minute habituation period followed by twenty trials.\nSeventeen of these trials involve the presentation of a single auditory stimulus (pulse stimulus; 50 dB above the background noise), and in three of these trials, a pre-pulse stimulus (12 dB above background) is presented 100 ms before the pulse auditory stimulus.\nRats are then assigned to various treatment groups so that the magnitude of the startle response is equivalent across all groups. Two days later, a testing session is conducted to assess sensorimotor gating.\nThe testing session consists of a five minute habituation period, after which rats received 58 discrete trials: 26 trials during which the pulse stimulus (50 dB above background) was presented alone, eight trials each in which the pulse stimulus was preceded by a pre-pulse stimulus (5, 10, or 15 dB above background), and eight background trials with no pulse (no stimulus; background noise only).\nThe first six pulse alone trials are not included in the average startle stimulus, to achieve a relatively stable level of startle reactivity. The percent of pre-pulse inhibition is determined as 100−(average pre-pulse startle response/average startle stimulus alone)*100."}, "[2]": {"details": "in vivo; cited from earlier work"}, "[3]": {"details": "clinical trials; cited from earlier work"}, "[4]": {"tested_on": "cocaine abusers", "details": "cocaine abusers receiving NAC; cited from earlier work"}, "[5]": {"tested_on": "rodents", "details": "cited from earlier work"}, "[6]": {"tested_on": "human subjects", "details": "cited from earlier work"}, "[7]": {"details": "N=8/group, versus PCP alone and/or N-acetylcysteine 30 mg/kg, Fisher LSD p<0.05"}}, "data": [{"molecule": "Cc1noc(C(CSSCC(NC(=O)OC(C)(C)C)c2nc(C)no2)NC(=O)OC(C)(C)C)n1", "note": "[Compound 23, tert-Butyl (1R,1′R)-2,2′-disulfanediylbis(1-(3-methyl-1,2,4-oxadiazol-5-yl)ethane-2,1-diyl)dicarbamate]", "values": [{"measurement": "inhibition of startle response when preceded by pre-pulse (sensorimotor gating)", "setting": "[1]; [7]", "value": "significant difference"}]}, {"molecule": "CC(C)c1noc([C@@H](N)CSSC[C@H](N)c2nc(C(C)C)no2)n1", "note": "[Compound 25, (1R,1′R)-2,2′-Disulfanediylbis(1-(3-isopropyl-1,2,4-oxadiazol-5-yl)ethanamine)]", "values": [{"measurement": "inhibition of startle response when preceded by pre-pulse (sensorimotor gating)", "setting": "[1]; [7]", "value": "significant difference"}]}, {"molecule": "CC(=O)N[C@@H](CS)C(=O)O", "note": "[N-acetyl cysteine, N-acetylcysteine]", "values": [{"measurement": "first-pass metabolism", "setting": "[2]", "value": "extensive first-pass metabolism"}, {"measurement": "passive transport across the blood-brain barrier", "setting": "[2]", "value": "limited passive transport"}, {"measurement": "antipsychotic efficacy", "setting": "[3]", "value": "clinical trials establishing the antipsychotic efficacy"}, {"measurement": "cocaine use and craving", "setting": "[4]", "value": "reduction in cocaine use and craving"}, {"measurement": "phencyclidine-induced deficits in sensorimotor gating", "setting": "[1]; direct delivery into the brain (prefrontal cortex), FIG. 6", "value": "reverses phencyclidine-induced deficits in sensorimotor gating"}, {"measurement": "inhibition of startle response when preceded by pre-pulse (sensorimotor gating)", "setting": "[1]; 30 mg/kg po", "value": "failed to exhibit sensorimotor gating"}, {"measurement": "blocking compulsive drug-seeking", "setting": "[5]", "value": "effective in blocking compulsive drug-seeking"}, {"measurement": "safety/tolerability profile", "setting": "[6]", "value": "favorable safety/tolerability profile"}]}, {"molecule": "c1ccc(C2(N3CCCCC3)CCCCC2)cc1", "note": "[phencyclidine]", "values": [{"measurement": "reduction in the startle response elicited by the pulse when preceded by the pre-pulse", "setting": "[1]; rats, phencyclidine only 1.25 mg/kg SC, N=50, regardless of pre-pulse intensity", "value": "failed to exhibit a reduction in the response elicited by the pulse"}]}, {"molecule": "tert-Butyl (1R,1′R)-2,2′-disulfanediylbis(1-(3-isopropyl-1,2,4-oxadiazol-5-yl)ethane-2,1-diyl)dicarbamate [Compound 22]", "values": [{"measurement": "inhibition of startle response when preceded by pre-pulse (sensorimotor gating)", "setting": "[1]; [7]", "value": "significant difference"}]}]}
